The target in assay [1] is T1, Recombinant STAT3 protein (STAT3(G127-I722)) (Homo sapiens, UniProt P40763).
T1 construct: Recombinant STAT3 protein (STAT3(G127-I722))
The assay is described as follows: STAT3 Fluorescence Polarization (FP) Assay. The class given is binding. The conditions noted are these: STAT3(G127-I722) 25 nM, probe 5-FAM-GpYLPQTV-NH2 2 nM, 45-minute incubation. In a few lines: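 STAT3(G127-I722), 25 nM, was mixed with 2 nM 5-FAM-GpYLPQTV-NH2 probe in HEPES pH 7.4 buffer with 1% DMSO and serially diluted compound. FP (mP) was read after 45 min at room temperature. IC50 came from nonlinear regression.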

For assay [2], the target named is T2, Recombinant STAT6 protein (STAT6(W123-T658)) (Homo sapiens, UniProt P42226).
T2 construct: Recombinant STAT6 protein (STAT6(W123-T658))
T2 sequence (P42226 123-658): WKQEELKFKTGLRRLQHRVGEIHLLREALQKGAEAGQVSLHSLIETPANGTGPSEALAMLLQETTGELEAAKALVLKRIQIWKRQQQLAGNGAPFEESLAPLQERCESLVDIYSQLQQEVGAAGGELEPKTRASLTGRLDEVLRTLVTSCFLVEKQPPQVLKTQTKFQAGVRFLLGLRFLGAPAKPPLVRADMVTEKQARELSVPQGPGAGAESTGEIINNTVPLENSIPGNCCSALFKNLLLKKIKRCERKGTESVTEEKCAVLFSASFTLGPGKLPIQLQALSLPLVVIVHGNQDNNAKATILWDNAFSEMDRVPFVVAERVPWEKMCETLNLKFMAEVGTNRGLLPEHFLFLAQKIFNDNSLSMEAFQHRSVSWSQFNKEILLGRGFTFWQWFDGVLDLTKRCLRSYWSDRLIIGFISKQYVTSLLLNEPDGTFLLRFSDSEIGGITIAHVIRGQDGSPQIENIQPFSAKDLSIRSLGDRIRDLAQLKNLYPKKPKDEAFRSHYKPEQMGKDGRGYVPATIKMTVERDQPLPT
The assay can be described thus: STAT6 Fluorescence Polarization (FP) Assay. The class given is binding. The conditions noted are these: STAT6(W123-T658) 250 nM, probe 5-FAM-ApYKPFQDLI-NH2 2 nM, 45-minute incubation. In a few lines: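 Displacement of a fluorescent phosphotyrosine peptide (5-FAM-ApYKPFQDLI-NH2, 2 nM) from STAT6(W123-T658) (250 nM), 1% DMSO, pH 7.4 HEPES buffer. After 45 min at room temperature, polarization (mP) was plotted versus log compound concentration and fitted by nonlinear regression to give IC50.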
Background: Polarisation of emitted light reports the rotation of a fluorescent probe.

T1 sequence (P40763 127-722): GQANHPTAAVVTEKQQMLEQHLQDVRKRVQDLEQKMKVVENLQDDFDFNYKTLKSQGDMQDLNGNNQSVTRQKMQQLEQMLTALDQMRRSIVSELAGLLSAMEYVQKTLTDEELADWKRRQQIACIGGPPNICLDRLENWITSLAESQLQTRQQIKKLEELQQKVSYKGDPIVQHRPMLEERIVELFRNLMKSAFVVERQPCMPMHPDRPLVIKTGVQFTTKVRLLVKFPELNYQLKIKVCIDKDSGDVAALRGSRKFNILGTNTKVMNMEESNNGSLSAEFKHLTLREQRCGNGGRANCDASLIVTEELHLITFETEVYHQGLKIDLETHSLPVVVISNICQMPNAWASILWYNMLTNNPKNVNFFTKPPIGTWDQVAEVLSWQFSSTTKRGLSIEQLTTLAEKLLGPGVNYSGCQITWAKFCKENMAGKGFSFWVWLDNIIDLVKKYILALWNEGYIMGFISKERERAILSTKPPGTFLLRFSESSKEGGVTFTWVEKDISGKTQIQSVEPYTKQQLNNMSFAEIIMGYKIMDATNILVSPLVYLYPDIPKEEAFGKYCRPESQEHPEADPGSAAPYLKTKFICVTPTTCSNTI

With `CC(=O)N1CC[C@H]2CC[C@@H](C(=O)N3CCC[C@@H]3Cc3ccccc3)N2C(=O)[C@@H](NC(=O)c2cc3cc(C(F)(F)P(=O)(O)O)ccc3[nH]2)C1` [Compound 129, ((2-(((5S,8S,10aR)-3-acetyl-8-((R)-2-benzylpyrrolidine-1-carbonyl)-6-oxodecahydropyrrolo[1,2-a][1,5]diazocin-5-yl)carbamoyl)-1H-indol-5-yl)difluoromethyl)phosphonic acid], the IC50 (usually the concentration at which inhibition is half-maximal) in assay [1] was 1 to 10 µM; in assay [2], 0.3 to 3 µM.

On to `N#C[C@H]1CN(C(=O)[C@@H]2CC[C@@H]3CCN(CC(F)F)C[C@H](NC(=O)c4ccc5ccc(C(F)(F)P(=O)(O)O)cc5c4)C(=O)N32)C[C@@H]1c1cc(F)cc(F)c1` (relative stereo) [Compound 246, ((7-(((5S,8S,10aR)-8-((rel-trans)-3-cyano-4-(3,5-difluorophenyl)pyrrolidine-1-carbonyl)-3-(2,2-difluoroethyl)-6-oxodecahydropyrrolo[1,2-a][1,5]diazocin-5-yl)carbamoyl)naphthalen-2-yl)difluoromethyl)phosphonic acid], for which the IC50 in assay [1] is 1 to 10 µM; in assay [2], 0.3 to 3 µM.

In the case of `CN(C(=O)[C@@H]1CC[C@@H]2CCN(CC(F)F)C[C@H](NC(=O)c3cc4cc(C(F)(F)P(=O)(O)O)ccc4[nH]3)C(=O)N21)c1ccccc1` [Compound 218, ((2-(((5S,8S,10aR)-3-(2,2-difluoroethyl)-8-(methyl(phenyl)carbamoyl)-6-oxodecahydropyrrolo[1,2-a][1,5]diazocin-5-yl)carbamoyl)-1H-indol-5-yl)difluoromethyl)phosphonic acid], the IC50 lay in the range of 1 to 10 µM in assay [1] and 0.3 to 3 µM in assay [2].

For `CC(=O)N1CC[C@H]2CC[C@@H](C(=O)N(C)c3ccccc3)N2C(=O)[C@@H](NC(=O)c2ccc3ccc(CP(=O)(O)O)cc3c2)C1` [Compound 15, ((7-(((5S,8S,10aR)-3-acetyl-8-(methyl(phenyl)carbamoyl)-6-oxodecahydropyrrolo[1,2-a][1,5]diazocin-5-yl)carbamoyl)naphthalen-2-yl)methyl)phosphonic acid], the IC50 in assay [1] is above 10 µM; in assay [2], 3 to 30 µM.

In the case of `CCN(C(=O)[C@@H]1CC[C@@H]2CCN(C(C)=O)C[C@H](NC(=O)c3cc4cc(C(F)(F)P(=O)(O)O)ccc4[nH]3)C(=O)N21)c1ccccc1` [Compound 169, ((2-(((5S,8S,10aR)-3-acetyl-8-(ethyl(phenyl)carbamoyl)-6-oxodecahydropyrrolo[1,2-a][1,5]diazocin-5-yl)carbamoyl)-1H-indol-5-yl)difluoromethyl)phosphonic acid], the half-maximal inhibitory concentration (IC50) in assay [1] is 1 to 10 µM; in assay [2], 0.3 to 3 µM.

Turning to `O=C(N[C@H]1CN(c2cc3ccccc3cn2)CC[C@H]2CC[C@@H](C(=O)N3CCOCC3)N2C1=O)c1ccc2ccc(C(F)P(=O)(O)O)cc2c1` (stereo partly drawn) [Compound 392, (fluoro(7-(((5S,8S, 10aR)-3-(isoquinolin-3-yl)-8-(morpholine-4-carbonyl)-6-oxodecahydropyrrolo [1,2-a][1,5]diazocin-5-yl)carbamoyl)naphthalen-2-yl)methyl)phosphonic acid], the results for the IC50 in assay [1] and in assay [2] were 1 to 10 µM and 3 to 30 µM, respectively.

Take `CC(=O)N1CC[C@H]2CC[C@@H](C(=O)N3CCC[C@H]3Cc3ccccc3)N2C(=O)[C@@H](NC(=O)c2cc3cc(C(F)(F)P(=O)(O)O)ccc3[nH]2)C1` [Compound 163, ((2-(((5S,8S,10aR)-3-acetyl-8-((S)-2-benzylpyrrolidine-1-carbonyl)-6-oxodecahydropyrrolo[1,2-a][1,5]diazocin-5-yl)carbamoyl)-1H-indol-5-yl)difluoromethyl)phosphonic acid]: the IC50 in assay [1] is 1 to 10 µM; in assay [2] it was 0.3 to 3 µM.

As for `CC(C)CN1CC[C@H]2CC[C@@H](C(=O)N3CC(C(=O)N4CCOCC4)C3)N2C(=O)[C@@H](NC(=O)c2cc3cc(C(F)(F)P(=O)(O)O)ccc3s2)C1` [Compound 257, (difluoro(2-(((5S,8S,10aR)-3-isobutyl-8-(3-(morpholine-4-carbonyl)azetidine-1-carbonyl)-6-oxodecahydropyrrolo[1,2-a][1,5]diazocin-5-yl)carbamoyl)benzo[b]thiophen-5-yl)methyl)phosphonic acid], the IC50 in assay [1] was 0.1 to 1 µM; in assay [2], 3 to 30 µM.

Regarding `CN(C(=O)[C@@H]1CC[C@@H]2CCN(C(=O)c3ccccc3)C[C@H](NC(=O)c3cc4cc(C(F)(F)P(=O)(O)O)ccc4[nH]3)C(=O)N21)c1ccccc1` [Compound 220, ((2-(((5S,8S,10aR)-3-benzoyl-8-(methyl(phenyl)carbamoyl)-6-oxodecahydropyrrolo[1,2-a][1,5]diazocin-5-yl)carbamoyl)-1H-indol-5-yl)difluoromethyl)phosphonic acid], the IC50 in assay [1] is above 10 µM; in assay [2], 0.3 to 3 µM.

Turning to `CC(=O)N1CC[C@H]2CC[C@@H](C(=O)Nc3ccc(-c4ccccc4)cc3)N2C(=O)[C@@H](NC(=O)c2cc3cc(C(F)P(=O)(O)O)ccc3s2)C1` (stereo partly drawn) [Compound 17, ((2-(((5S,8S,10aR)-8-([1,1′-biphenyl]-4-ylcarbamoyl)-3-acetyl-6-oxodecahydropyrrolo[1,2-a][1,5]diazocin-5-yl)carbamoyl)benzo[b]thiophen-5-yl)fluoromethyl)phosphonic acid], the results for the IC50 in assay [1] and in assay [2] were 1 to 10 µM and 0.3 to 3 µM, respectively.

Regarding `COc1ccc(C2CN(C(=O)[C@@H]3CC[C@@H]4CCN(C(C)=O)C[C@H](NC(=O)c5cc6cc(C(F)(F)P(=O)(O)O)ccc6s5)C(=O)N43)C[C@@H]2C#N)cn1` (relative stereo) [Compound 147, ((2-(((5S,8S,10aR)-3-acetyl-8-((rel-trans)-3-cyano-4-(6-methoxypyridin-3-yl)pyrrolidine-1-carbonyl)-6-oxodecahydropyrrolo[1,2-a][1,5]diazocin-5-yl)carbamoyl)benzo[b]thiophen-5-yl)difluoromethyl)phosphonic acid], the figures for the IC50 in assay [1] and in assay [2] were 0.1 to 1 µM and 0.3 to 3 µM, respectively.

On to `CC(=O)N1CC[C@H]2CC[C@@H](C(=O)Nc3ccc4ccnnc4c3)N2C(=O)[C@@H](NC(=O)c2cc3cc(C(F)(F)P(=O)(O)O)ccc3s2)C1` [Compound 189, ((2-(((5S,8S,10aR)-3-acetyl-8-(cinnolin-7-ylcarbamoyl)-6-oxodecahydropyrrolo[1,2-a][1,5]diazocin-5-yl)carbamoyl)benzo[b]thiophen-5-yl)difluoromethyl)phosphonic acid], for which the IC50 in assay [1] fell in the range of 1 to 10 µM; in assay [2] it was 0.3 to 3 µM.

On to `COC1CCN(C2CCN(C(=O)[C@@H]3CC[C@@H]4CCN(C(C)=O)C[C@H](NC(=O)c5cc6cc(C(F)(F)P(=O)(O)O)ccc6s5)C(=O)N43)C2)CC1` (stereo partly drawn) [Compound 83, ((2-(((5S,8S,10aR)-3-acetyl-8-(3-(4-methoxypiperidin-1-yl)pyrrolidine-1-carbonyl)-6-oxodecahydropyrrolo[1,2-a][1,5]diazocin-5-yl)carbamoyl)benzo[b]thiophen-5-yl)difluoromethyl)phosphonic acid], for which the IC50 in assay [1] lay in the range of 1 to 10 µM; in assay [2] it was 3 to 30 µM.

`CC(=O)N1CC[C@H]2CC[C@@H](C(=O)N3CCCC3Cc3ccccc3F)N2C(=O)[C@@H](NC(=O)c2cc3cc(C(F)(F)P(=O)(O)O)ccc3[nH]2)C1` (stereo partly drawn) [Compound 133, ((2-(((5S,8S,10aR)-3-acetyl-8-(2-(2-fluorobenzyl)pyrrolidine-1-carbonyl)-6-oxodecahydropyrrolo[1,2-a][1,5]diazocin-5-yl)carbamoyl)-1H-indol-5-yl)difluoromethyl)phosphonic acid]: the values for the IC50 in assay [1] and in assay [2] were 1 to 10 µM and 0.3 to 3 µM, respectively.

These data come from patent publication US20250179103A1, “6-OXODECAHYDROPYRROLO[1,2-A][1,5]DIAZOCINE AND 6-OXODECAHYDRO-4H-PYRROLO[2,1-D][1,5]THIAZOCINE DERIVATIVES AS STAT3 AND STAT6 MODULATORS FOR THE TREATMENT OF CANCER AND INFLAMMATORY CONDITIONS” (Recludix Pharma, Inc., priority 2022, published 2025).
